The structures appear in SMILES notation. pIC50: −log10 of the molar value. Like-named read-outs stand apart in the source and are kept apart here.

Experiment [1] concerns ICAM-1 expression in HT-29 cells. Nature of the experiment: Measurement of ICAM-1 expressing activity (TNFα-induced ICAM-1 expression, cell ELISA). Format: cell-based. The following applies: Homo sapiens, Table 6, cell activity inhibition test by method (3), read-out: EVALUATION (IC50 class, inhibition of cell activity). As to the method:
Method 2: Measurement of ICAM-1 expressing activity
2.0 x 10^4 HT-29 cells (ATCC) were plated onto a 96-well plate, and the cells were cultured for 48 hours using a McCoy' 5A medium (GIBCO) containing 10% inactivated fetal calf serum. The culture medium was removed, a culture medium containing a compound to be evaluated (final DMSO concentration of 0.5%) was added, and this was incubated at 37°C for 30 minutes. Thirty ng/mL of human TNFα (GIBCO) was added, and this was incubated at 37°C for 4 hours. After washing once with a washing solution (PBS containing 0.05% Tween 20), ice-cooled methanol was added, and this was left on ice for 10 minutes and then fixed. After removing methanol, PBS containing 1% BSA was added, and blocking was performed by letting this stand at room temperature for 30 minutes. Anti-ICAM-1 antibody (Santa Cruz Biotechnology) was added, and this was left to stand at room temperature for 1 hour. After washing with the washing solution, POD-labeled secondary antibody was added, and this was left to stand at room temperature for 30 minutes. This was washed, 100 µL of 100 mM citric acid buffer (pH4.2) containing 1 mM TMBZ and 0.03% H2O2 was added, and this was reacted at room temperature for 15 minutes. The reaction was terminated with 100 µL of 2 N H2SO4, and the absorbance at 450 nm was measured using ARVO-HTS (Perkin Elmer).
When cells are stimulated with TNFα, IκBα is degraded after ubiquitination resulting in the activation of NFκB and the promotion of the expression of adhesion factor ICAM-1. Therefore, the suppression of ICAM-1 expression described above serves as an indicator to determine the effectiveness of the compound in the cells.
(In general: ELISA stands for enzyme-linked immunosorbent assay.)

For experiment [2], the target named is T1, IκBα ubiquitinating enzyme (SCF complex: ROC1, Cullin1, Skp1, His-TrCP1; with E1, UbcH5b) (Homo sapiens, UniProt P62877+P63208+Q13616+Q9Y297).
T1 construct: His (polyhistidine); made in house; host or cells: insect cells (baculovirus) for the SCF complex and His-E1; E. coli for His-UBCH5b
T1 sequence (Q9Y297 whole entry): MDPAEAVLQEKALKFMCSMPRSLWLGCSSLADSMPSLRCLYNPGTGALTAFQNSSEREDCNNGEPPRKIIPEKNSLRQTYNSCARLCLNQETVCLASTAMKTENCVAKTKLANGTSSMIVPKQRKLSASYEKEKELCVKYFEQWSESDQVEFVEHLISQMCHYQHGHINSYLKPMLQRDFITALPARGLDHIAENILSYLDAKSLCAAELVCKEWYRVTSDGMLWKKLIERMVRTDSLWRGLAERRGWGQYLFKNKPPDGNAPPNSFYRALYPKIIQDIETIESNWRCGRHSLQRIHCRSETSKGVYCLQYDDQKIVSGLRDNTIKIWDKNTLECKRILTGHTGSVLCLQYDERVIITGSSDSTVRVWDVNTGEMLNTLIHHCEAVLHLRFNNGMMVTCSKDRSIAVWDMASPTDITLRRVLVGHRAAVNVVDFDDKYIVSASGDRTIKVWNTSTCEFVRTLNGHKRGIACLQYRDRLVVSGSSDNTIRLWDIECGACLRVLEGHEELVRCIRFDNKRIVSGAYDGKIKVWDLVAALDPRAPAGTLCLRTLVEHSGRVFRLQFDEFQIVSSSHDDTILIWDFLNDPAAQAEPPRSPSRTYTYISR
T1 sequence (Q13616 whole entry): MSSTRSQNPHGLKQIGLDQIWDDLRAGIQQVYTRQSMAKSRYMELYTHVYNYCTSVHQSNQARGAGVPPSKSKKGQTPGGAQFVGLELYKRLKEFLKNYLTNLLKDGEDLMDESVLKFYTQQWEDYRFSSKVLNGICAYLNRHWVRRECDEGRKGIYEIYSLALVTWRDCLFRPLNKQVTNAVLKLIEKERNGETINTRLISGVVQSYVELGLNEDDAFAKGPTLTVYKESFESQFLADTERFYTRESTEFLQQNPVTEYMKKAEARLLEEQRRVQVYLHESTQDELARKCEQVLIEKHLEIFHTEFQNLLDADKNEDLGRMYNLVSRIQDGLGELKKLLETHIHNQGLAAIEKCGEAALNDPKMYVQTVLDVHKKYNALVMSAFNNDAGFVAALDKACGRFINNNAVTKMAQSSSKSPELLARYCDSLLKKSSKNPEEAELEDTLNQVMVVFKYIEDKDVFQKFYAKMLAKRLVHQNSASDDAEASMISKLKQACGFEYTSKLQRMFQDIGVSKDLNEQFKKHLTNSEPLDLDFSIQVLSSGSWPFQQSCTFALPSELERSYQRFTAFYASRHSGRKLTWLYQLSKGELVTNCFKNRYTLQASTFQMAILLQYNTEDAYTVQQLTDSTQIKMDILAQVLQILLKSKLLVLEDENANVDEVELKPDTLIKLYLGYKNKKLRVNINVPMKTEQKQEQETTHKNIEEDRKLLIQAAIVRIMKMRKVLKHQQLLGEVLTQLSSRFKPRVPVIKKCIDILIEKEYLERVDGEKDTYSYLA
T1 sequence (P63208 whole entry): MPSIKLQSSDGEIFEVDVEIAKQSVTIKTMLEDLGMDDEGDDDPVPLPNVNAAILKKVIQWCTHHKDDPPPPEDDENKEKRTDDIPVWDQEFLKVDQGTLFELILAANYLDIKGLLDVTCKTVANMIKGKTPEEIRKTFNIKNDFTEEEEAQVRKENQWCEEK
T1 sequence (P62877 whole entry): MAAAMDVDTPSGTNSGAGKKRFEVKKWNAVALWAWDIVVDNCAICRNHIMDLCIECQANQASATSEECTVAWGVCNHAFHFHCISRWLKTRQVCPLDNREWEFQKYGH
Description: Measurement of ubiquitinating enzyme activity (IκBα ubiquitination, time-resolved fluorescence with Eu(K)-labeled ubiquitin and XL665-labeled anti-GST antibody). The class given is biochemical. The gist of the method: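 Human SCF complex with E1 and UbcH5b ubiquitinated GST-IκBα pre-phosphorylated by IKKβ (2 mM ATP, pH 7.4, 1 h, RT), with Eu(K)-ubiquitin, 30 min RT. Stopped with EDTA, XL665 anti-GST added for 2 h; 665/620 nm TR-FRET ratio. % inhibition versus no-compound control and no-SCF blank gave IC50.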

Setting [3] is: enzyme activity inhibition test, method (1), Table 5, read-out: EVALUATION

As for `COC(=O)c1ccc(COc2ccc(/C=C3\C(=O)N(c4ccc(S(N)(=O)=O)cc4)N=C3C)cc2OC)cc1` [Compound 120], the pIC50 in experiment [1] was over 4.40; in experiment [2] (setting [3]) it was over 5.00.
In the case of `COc1cc(/C=C2\C(=O)N(c3ccc(S(N)(=O)=O)cc3)N=C2C)ccc1OCC(=O)OC(C)(C)C` [Compound 121], the pIC50 in experiment [1] and in experiment [2] (setting [3]) was 4.70 to 5.00 each time.
Turning to `COc1cc(/C=C2\C(=O)N(c3ccccc3)N=C2C)ccc1OCC(=O)OC(C)(C)C` [Compound 125], the pIC50 in experiment [1] is over 4.40; in experiment [2] (setting [3]), 4.70 to 5.00.
On the same counts, the results for `CC1=NN(c2ccc(S(N)(=O)=O)cc2)C(=O)/C1=C\c1ccc(N2CCCCC2)cc1` [Compound 126] are 4.70 to 5.00 and 4.70 to 5.00.
On the same counts, the results for `CC1=NN(c2ccccc2)C(=O)/C1=C\c1ccc2[nH]ccc2c1` [Compound 127] are over 4.40 and over 5.00.
On the same counts, the results for `COc1cc(/C=C2\C(=O)N(Cc3cccc(O)c3)N=C2C)ccc1O` [Compound 128] are over 5.00 and 4.70 to 5.00.
`COc1cc(/C=C2\C(=O)N(c3ccccn3)N=C2C)ccc1O` [Compound 129]: the values for the pIC50 in experiment [1] and in experiment [2] (setting [3]) were over 5.00 and over 4.40, respectively.
`CC1=NN(c2ccc(S(N)(=O)=O)cc2)C(=O)/C1=C\c1ccc2[nH]ccc2c1` [Compound 133]: the pIC50 in experiment [1] is over 4.40; in experiment [2] (setting [3]), over 5.00.
Consider `CC1=NN(c2cccc(S(N)(=O)=O)c2)C(=O)/C1=C\c1ccc2[nH]ccc2c1` [Compound 134], for which the pIC50 in experiment [1] is over 4.40; in experiment [2] (setting [3]), over 5.00.
Taken in the same sequence, the figures for `CC1=NN(c2ccc(S(N)(=O)=O)cc2)C(=O)/C1=C\c1ccc2cc[nH]c2c1` [Compound 148] were over 4.40 and over 5.00.
On the same counts, the results for `CC1=NN(c2ccc(S(N)(=O)=O)cc2)C(=O)/C1=C\c1ccc(-n2cccn2)cc1` [Compound 150] are over 5.00 and over 5.00.
Taken in the same sequence, the figures for `CCOC(=O)c1ccc(COc2ccc(/C=C3\C(=O)N(c4ccc(S(N)(=O)=O)cc4)N=C3C)cc2OC)o1` [Compound 154] were over 5.00 and over 5.00.
Turning to `CC1=NN(c2cccc(S(N)(=O)=O)c2)C(=O)/C1=C\c1cc2ccccc2o1` [Compound 164], the pIC50 in experiment [1] and in experiment [2] (setting [3]) was over 5.00 each time.
`CC1=NN(c2ccc(S(N)(=O)=O)cc2)C(=O)/C1=C\c1cc2ccccc2o1` [Compound 168]: the pIC50 in experiment [1] is 4.70 to 5.00; in experiment [2] (setting [3]), over 5.00.
For the compound `CC1=NN(c2ccc(S(N)(=O)=O)cc2)C(=O)C1=Cc1ccc(N2CCN(C(=O)OC(C)(C)C)CC2)cc1` [Compound 179], the pIC50 in experiment [1] is over 4.40; in experiment [2], 4.70 to 5.00.
In the case of `CC1=NN(c2cccc(S(N)(=O)=O)c2)C(=O)C1=Cc1ccc(N2CCN(C(=O)OC(C)(C)C)CC2)cc1` [Compound 180], the pIC50 is over 4.40 in experiment [1] and 4.70 to 5.00 in experiment [2].
Turning to `CC1=NN(Cc2cccc(O)c2)C(=O)/C1=C\c1ccc(-c2ccccc2F)o1` [Compound 185], the values for the pIC50 in experiment [1] and in experiment [2] (setting [3]) were 4.70 to 5.00 and over 5.00, respectively.
Regarding `Cn1cc(-c2ccc(/C=C3\C(=O)N(Cc4cccc(O)c4)N=C3c3ccoc3)o2)cn1` [Compound 188], the pIC50 is over 4.40 in experiment [1] and 4.70 to 5.00 in experiment [2] (setting [3]).
Taken in the same sequence, the figures for `COCC1=NN(Cc2cccc(O)c2)C(=O)/C1=C\c1ccc(-c2ccccc2F)o1` [Compound 190] were 4.70 to 5.00 and 4.70 to 5.00.
In the case of `COc1cc(C=C2C(=O)N(c3cccc4ccccc34)N=C2C)ccc1O` [Compound 195], the pIC50 is 4.70 to 5.00 in experiment [1] and over 5.00 in experiment [2].
Turning to `COc1cc(/C=C2/C(=O)N(C3CCCCC3)N=C2C)ccc1O` [Compound 199], the pIC50 was over 5.00 in experiment [1] and 4.70 to 5.00 in experiment [2] (setting [3]).
Taken in the same sequence, the figures for `CC1=NN(c2ccccc2)C(=O)/C1=C\c1ccc(N2CCNCC2)cc1` [Compound 200] were over 4.40 and 4.70 to 5.00.
In the case of `COc1cc(C=C2C(=O)N(Cc3ccccc3)N=C2C)ccc1O` [Compound 201], the pIC50 in experiment [1] was 4.70 to 5.00; in experiment [2], over 5.00.
Turning to `COc1cc(/C=C2\C(=O)N(c3ccc(S(N)(=O)=O)cc3)N=C2C)ccc1OS(=O)(=O)c1ccc(C)cc1` [Compound 202], the pIC50 is over 4.40 in experiment [1] and 4.70 to 5.00 in experiment [2] (setting [3]).
Consider `CCCNC(=O)COc1ccc(C=C2C(=O)N(c3ccccc3)N=C2C)cc1` [Compound 204], for which the pIC50 in experiment [1] and in experiment [2] was 4.70 to 5.00 each time.
Turning to `CC1=NN(c2ccc(S(N)(=O)=O)cc2)C(=O)/C1=C\c1ccc(OCC(N)=O)cc1` [Compound 208], the pIC50 in experiment [1] is over 4.40; in experiment [2] (setting [3]), over 5.00.
For the compound `CC1=NN(c2ccc(S(N)(=O)=O)cc2)C(=O)C1=Cc1ccc(OCC(=O)Nc2ccccc2)cc1` [Compound 210], the pIC50 is 4.70 to 5.00 in experiment [1] and over 5.00 in experiment [2].
Taken in the same sequence, the figures for `CCCNC(=O)COc1ccc(C=C2C(=O)N(c3ccc(S(N)(=O)=O)cc3)N=C2C)cc1` [Compound 211] were over 4.40 and 4.70 to 5.00.
Taken in the same sequence, the figures for `CC1=NN(c2ccccc2)C(=O)C1=Cc1ccc(Oc2ccccc2)cc1` [Compound 212] were 4.70 to 5.00 and 4.70 to 5.00.
For `CC1=NN(c2ccc(S(N)(=O)=O)cc2)C(=O)/C1=C\c1ccc(Oc2ccccc2)cc1` [Compound 213], the pIC50 was over 5.00 in experiment [1] and 4.70 to 5.00 in experiment [2] (setting [3]).
With `CC1=NN(c2ccc(S(N)(=O)=O)cc2)C(=O)/C1=C\c1ccc(OCC(=O)O)cc1` [Compound 214], the results for the pIC50 in experiment [1] and in experiment [2] (setting [3]) were over 4.40 and 4.70 to 5.00, respectively.
Take `CCOC(=O)COc1ccc(C=C2C(=O)N(c3ccc(S(N)(=O)=O)cc3)N=C2C)cc1` [Compound 215]: the pIC50 in experiment [1] and in experiment [2] was 4.70 to 5.00 in each case.
Turning to `CC1=NN(c2ccc(S(N)(=O)=O)cc2)C(=O)C1=Cc1ccc(OCc2ccc([N+](=O)[O-])cc2)cc1` [Compound 216], the pIC50 in experiment [1] was over 4.40; in experiment [2] it was over 5.00.
For `CC1=NN(c2ccc(S(N)(=O)=O)cc2)C(=O)C1=Cc1ccc(O)cc1` [Compound 218], the pIC50 in experiment [1] is over 4.40; in experiment [2] (setting [3]) it was 4.70 to 5.00.
On to `CC1=NN(c2ccc(S(N)(=O)=O)cc2)C(=O)/C1=C\c1ccccc1OS(=O)(=O)c1ccc(C)cc1` [Compound 220], for which the pIC50 is over 5.00 in experiment [1] and 4.70 to 5.00 in experiment [2] (setting [3]).
In the case of `CC1=NN(c2ccc(S(N)(=O)=O)cc2)C(=O)/C1=C\c1ccc(NC(=O)c2ccccc2)cc1` [Compound 224], the pIC50 is 4.70 to 5.00 in experiment [1] and over 5.00 in experiment [2] (setting [3]).
Consider `CC1=NN(c2ccc(S(N)(=O)=O)cc2)C(=O)C1=Cc1ccc(NC(=O)c2ccccc2F)cc1` [Compound 225], for which the pIC50 in experiment [1] is over 4.40; in experiment [2] it was over 5.00.
Taken in the same sequence, the figures for `CC1=NN(c2ccc(S(N)(=O)=O)cc2)C(=O)C1=Cc1ccc(NC(=O)c2ccc(F)cc2)cc1` [Compound 226] were 4.70 to 5.00 and over 5.00.
On the same counts, the results for `CC1=NN(c2ccc(S(N)(=O)=O)cc2)C(=O)C1=Cc1ccc(NC(=O)c2ccc3ccccc3c2)cc1` [Compound 227] are 4.70 to 5.00 and over 5.00.
On the same counts, the results for `COc1ccccc1C(=O)Nc1ccc(C=C2C(=O)N(c3ccc(S(N)(=O)=O)cc3)N=C2C)cc1` [Compound 228] are 4.70 to 5.00 and over 5.00.
Take `COc1ccc(C(=O)Nc2ccc(C=C3C(=O)N(c4ccc(S(N)(=O)=O)cc4)N=C3C)cc2)cc1` [Compound 229]: the pIC50 in experiment [1] is 4.70 to 5.00; in experiment [2], over 5.00.
As for `CC1=NN(c2ccc(S(N)(=O)=O)cc2)C(=O)/C1=C\c1ccc(NC(=O)/C=C/c2ccccc2)cc1` [Compound 230], the values for the pIC50 in experiment [1] and in experiment [2] (setting [3]) were over 4.40 and over 5.00, respectively.
`CC(C)=CC(=O)Nc1ccc(C=C2C(=O)N(c3ccc(S(N)(=O)=O)cc3)N=C2C)cc1` [Compound 232]: the results for the pIC50 in experiment [1] and in experiment [2] were over 4.40 and 4.70 to 5.00, respectively.
For `COCC1=NN(c2ccc(C(=O)O)cc2)C(=O)/C1=C\c1ccc2ccccc2c1` [Compound 233], the pIC50 in experiment [1] and in experiment [2] (setting [3]) was over 5.00 in each case.
On to `COCC1=NN(c2ccc(C(=O)O)cc2)C(=O)C1=Cc1ccc(OCc2ccccc2)c(OC)c1` [Compound 234, 4-[4-(Benzyloxy-3-methoxy-benzylidine)-3-methoxymethyl-5-oxo-4,5-dihydroxy-pyrazol-1-yl] benzoic acid], for which the pIC50 was over 5.00 in experiment [1] and over 5.00 in experiment [2] (read-out: EVALUATION, enzyme activity inhibition test, method (1), Table 5).

For the origin of these results see EP1900728A1 (Genecare Research Institute Co., Ltd, priority 2005, dated 2006).
